Measurements taken from US20230025003A1, “DIABETES THERAPY TARGETING ABNORMAL STEM CELLS” (Biozipcode, Inc., priority 2019, published 2023).

Tested on: diabetic patients (type 1 and type 2 diabetes mellitus)
Experiment: Research Plan 2: therapy of diabetes mellitus targeting a bone marrow-derived abnormal hematopoietic stem cell
Format: in vivo, human
Conditions: type 1 and type 2 diabetic patients; 12 weeks therapy; predicted result

“insulin alone: insulin therapy alone (control group of Research Plan 2)” was tested, and the “Effect of eliminating an abnormal hematopoietic stem cell” value was “not eliminated”, the “Effect of healing diabetes mellitus” value was “not observed” and the “Therapeutic effect on a complication” value was “observed to some extent, but the complication does not heal”.
